Measured values reported in patent US11491120B2, “Pharmacological prophylactics against stress-induced affective disorders in females” (The Trustees of Columbia University in the City of New York, priority 2017, dated 2022).
“Also recorded” adds a separate entry of the source.

What was measured:
[1] = tested on: female 129S6/SvEv mice; assay: Forced swim test (FST), immobility time, after stress; settings: for p, Immobility Time Average (min 3-6) / * (significance), Immobility Time (min 1) / p, Immobility Time (min 1) / p, Immobility Time (min 1-6) / p, Immobility Time (min 3) / p, Immobility Time (min 4) / p, Immobility Time (min 5) / p, Immobility Time (min 6): Forced Swim Test Day 1, 1 week prophylactic drug
[2] = tested on: female 129S6/SvEv mice; assay: Contextual fear conditioning (CFC), 3-shock, freezing in training and context re-exposure; settings: for Freezing during 3-shock CFC training vs saline: 1 week before CFC
[3] = Dunnett test Sal vs. drug (2.5)
[4] = single injection 1 week before stressor, female mice
[5] = Contextual Fear Conditioning Re-exposure, Dunnett test Sal vs. drug (0.025), 1 week prophylactic drug
[6] = Contextual Fear Conditioning Re-exposure, Dunnett test Sal vs. drug (0.075), 1 week prophylactic drug
[7] = Contextual Fear Conditioning Re-exposure, Dunnett test Sal vs. drug (0.1), 1 week prophylactic drug
[8] = Contextual Fear Conditioning Re-exposure, Dunnett test Sal vs. drug (0.3), 1 week prophylactic drug
[9] = Contextual Fear Conditioning Re-exposure, Dunnett test Sal vs. drug (2.5), 1 week prophylactic drug
[10] = Contextual Fear Conditioning Re-exposure, Dunnett test Sal vs. drug (10), 1 week prophylactic drug
[11] = Contextual Fear Conditioning Training, Dunnett test Sal vs. drug (0.025), 1 week prophylactic drug
[12] = Contextual Fear Conditioning Training, Dunnett test Sal vs. drug (0.075), 1 week prophylactic drug
[13] = Contextual Fear Conditioning Training, Dunnett test Sal vs. drug (0.1), 1 week prophylactic drug
[14] = Contextual Fear Conditioning Training, Dunnett test Sal vs. drug (0.3), 1 week prophylactic drug
[15] = Contextual Fear Conditioning Training, Dunnett test Sal vs. drug (2.5), 1 week prophylactic drug
[16] = Contextual Fear Conditioning Training, Dunnett test Sal vs. drug (10), 1 week prophylactic drug

N[C@]1(c2ccccc2Cl)CCC[C@H](O)C1=O [(2S,6S)-HNK]
p, Immobility Time Average (min 3-6) ([1]; Dunnett test Sal vs. drug (0.3)): 0.5532
* (significance), Immobility Time (min 1) [1, 3]: * (* p<0.05)
p, Immobility Time (min 1) [1, 3]: 0.0147
p, Immobility Time (min 1-6) [1, 3]: 0.9878
p, Immobility Time (min 3) [1, 3]: 0.9995
p, Immobility Time (min 4) [1, 3]: 0.9958
p, Immobility Time (min 5) [1, 3]: 0.9958
p, Immobility Time (min 6) [1, 3]: 0.9992
p, Immobility Time Average (min 3-6) [1, 3]: 0.9990
* (significance), Immobility Time (min 1) ([1]; Dunnett test Sal vs. drug (10)): ** (** p<0.01)
p, Immobility Time (min 1) ([1]; Dunnett test Sal vs. drug (10)): 0.0064
p, Immobility Time (min 1-6) ([1]; Dunnett test Sal vs. drug (10)): >0.9999
p, Immobility Time (min 3) ([1]; Dunnett test Sal vs. drug (10)): 0.9307
p, Immobility Time (min 4) ([1]; Dunnett test Sal vs. drug (10)): 0.9497
p, Immobility Time (min 5) ([1]; Dunnett test Sal vs. drug (10)): 0.9952
p, Immobility Time (min 6) ([1]; Dunnett test Sal vs. drug (10)): 0.5393
p, Immobility Time Average (min 3-6) ([1]; Dunnett test Sal vs. drug (10)): 0.8035
Immobility on FST Day 2 vs saline ([1]; all doses of (2S,6S)-HNK and all other dose groups, 1 week before CFC, female mice): failed to reduce average immobility
Prophylactic efficacy against stress-induced depressive-like behavior [1, 4]: but not (2S,6S)-HNK
p, Sal vs. drug, Dunnett test: Freezing (Average), Contextual Fear Conditioning Re-exposure ([2]; 0.025 mg/kg, 1 week prophylactic drug): 0.9898
p, Sal vs. drug, Dunnett test: Freezing (Average), Contextual Fear Conditioning Re-exposure ([2]; 0.075 mg/kg, 1 week prophylactic drug): 0.4829
Freezing during 3-shock CFC training vs saline ([2]; 0.1 mg/kg, female mice): froze significantly less
p, Sal vs. drug, Dunnett test: Freezing (Average), Contextual Fear Conditioning Re-exposure ([2]; 0.1 mg/kg, 1 week prophylactic drug): 0.9999
Freezing during 3-shock CFC training vs saline ([2]; 0.3 mg/kg, female mice): froze significantly more
p, Sal vs. drug, Dunnett test: Freezing (Average), Contextual Fear Conditioning Re-exposure ([2]; 0.3 mg/kg, 1 week prophylactic drug): 0.1973
p, Sal vs. drug, Dunnett test: Freezing (Average), Contextual Fear Conditioning Re-exposure ([2]; 2.5 mg/kg, 1 week prophylactic drug): 0.9996
p, Sal vs. drug, Dunnett test: Freezing (Average), Contextual Fear Conditioning Re-exposure ([2]; 10 mg/kg, 1 week prophylactic drug): 0.9896
p, Freezing (min 1-5) [2, 5]: 0.9898
p, Freezing (min 2) [2, 5]: >0.9999
p, Freezing (min 3) [2, 5]: 0.7775
p, Freezing (min 4) [2, 5]: 0.9990
p, Freezing (min 5) [2, 5]: 0.9996
p, Freezing (min 1-5) [2, 6]: 0.4829
p, Freezing (min 2) [2, 6]: 0.9135
p, Freezing (min 3) [2, 6]: 0.3091
p, Freezing (min 4) [2, 6]: 0.5808
p, Freezing (min 5) [2, 6]: 0.2703
p, Freezing (min 1-5) [2, 7]: 0.9999
p, Freezing (min 2) [2, 7]: 0.9997
p, Freezing (min 3) [2, 7]: 0.9998
p, Freezing (min 4) [2, 7]: 0.9889
p, Freezing (min 5) [2, 7]: >0.9999
p, Freezing (min 1-5) [2, 8]: 0.1973
p, Freezing (min 2) [2, 8]: 0.2064
p, Freezing (min 3) [2, 8]: 0.2280
p, Freezing (min 4) [2, 8]: 0.8082
p, Freezing (min 5) [2, 8]: 0.3262
p, Freezing (min 1-5) [2, 9]: 0.9996
p, Freezing (min 2) [2, 9]: 0.9991
p, Freezing (min 3) [2, 9]: 0.9908
p, Freezing (min 4) [2, 9]: 0.9997
p, Freezing (min 5) [2, 9]: >0.9999
p, Freezing (min 1-5) [2, 10]: 0.9896
p, Freezing (min 2) [2, 10]: 0.5764
p, Freezing (min 3) [2, 10]: 0.9993
p, Freezing (min 4) [2, 10]: 0.9991
p, Freezing (min 5) [2, 10]: >0.9999
p, Freezing (min 1-5) [2, 11]: 0.9955
p, Freezing (min 4) [2, 11]: 0.7894
p, Freezing (min 5) [2, 11]: >0.9999
p, Freezing (min 1-5) [2, 12]: 0.9996
p, Freezing (min 4) [2, 12]: 0.9991
p, Freezing (min 5) [2, 12]: >0.9999
p, Freezing (min 1-5) [2, 13]: 0.2466
p, Freezing (min 4) [2, 13]: 0.3064
p, Freezing (min 5) [2, 13]: 0.5117
* (significance), Freezing (min 1-5) [2, 14]: ** (** p<0.01)
p, Freezing (min 1-5) [2, 14]: 0.0085
p, Freezing (min 4) [2, 14]: 0.0675
p, Freezing (min 5) [2, 14]: 0.0731
p, Freezing (min 1-5) [2, 15]: 0.6733
p, Freezing (min 4) [2, 15]: 0.9438
p, Freezing (min 5) [2, 15]: 0.7492
p, Freezing (min 1-5) [2, 16]: 0.5049
p, Freezing (min 4) [2, 16]: 0.7737
p, Freezing (min 5) [2, 16]: 0.5845
Freezing during re-exposure to the CFC training context vs saline ([2]; single i.p. injection 1 week before 3-shock CFC, all doses, female mice): do not significantly alter freezing; also recorded: did not alter overall freezing
Attenuation of learned fear [2, 4]: do not attenuate learned fear
